{"source": "patent US6030841A", "about": "“Liver function test” (Norgine Limited, priority 1997, dated 2000)", "key": {"[1]": {"assay": "Plasma elimination of CLF after intravenous injection in healthy volunteers (and patients)", "format": "in vivo, human", "procedure": "A study was carried out in six healthy volunteers (1 female, 5 male), ages 30-53 years. Subjects were studied supine after overnight fasting. After an initial basal blood sample was taken, CLF in a dose of 0.02 mg/kg of body weight (b.w.) in physiological saline was injected intravenously during 15 seconds. Venous blood samples were collected from the opposite antecubital vein into gel and lithium heparin containers (sold under the Trade Name Vacutainers by Becton Dickinson Vacutainer Systems) at 2, 3, 4, 6, 10, 15, 20, 30, 60 and 90 minutes. The blood samples were then centrifuged and 0.5 ml aliquots of plasma were taken and added to 3.5 ml of methanol to precipitate plasma proteins, followed by further centrifugation. The supernatant (1 ml) was diluted to 3 ml with methanol and the fluorescence was then measured by spectrometer (Perkin Elmer LS5B Luminescence Spectrometer).\nCLF concentration (μg/ml) was derived from a calibration curve which expressed the equation: […]\nwhere y represents the measured fluorescence in fluorescence units at an excitation wavelength of 490 nm with emission at 520 nm and x represents the CLF concentration in μg/ml. The calibration curve was calibrated from fluorescence meaurements of solutions having known CLF concentrations followed by linear regression analysis.\nNon linear plasma elimination curves presented as percentage dose administered per liter of plasma were fitted to a tri-exponential model. The half life (t1/2 time) was calculated for the first (t1/2 1st phase), second (t1/2 2nd phase) and third (t1/2 3rd phase) phases of the elimination curves from the equations: […]\nwhere k1, k2 and k3 were calculated for each subject using the equation:\nCt =Ae^-k.sbsp.1^t +Be^-k.sbsp.2^t\nCt is the concentration of CLF at time t, A, B and C are the intercepts of each phase of elimination at t=0 k1, k2 and k3 are fractional disappearance rates of the three phases of elimination."}, "[2]": {"assay": "Standard liver function tests, electrolytes and kidney function before and after 0.5 mg/kg b.w. CLF", "format": "in vivo, human", "procedure": "In five healthy volunteers, a 25-fold higher dose of CLF (0.5 mg/kg b.w.) was injected in order to further assess the appropriateness of the dose chosen and the safety of the compound. […] Table.\nTests of Liver Function Before And After CLF Dose of\n0.5 mg/Kg b.w. For 5 Healthy Patients."}, "[3]": {"details": "Horak et al., cited from earlier work"}, "[4]": {"details": "radiolabelled, bi-exponential model, Cowen et al.; cited from earlier work"}, "[5]": {"details": "CLF 0.02 mg/kg b.w. i.v., healthy volunteers, plasma, tri-exponential model"}, "[6]": {"details": "after CLF 0.5 mg/kg b.w., only one value given"}}, "note": "Where two headings read alike, the source gives them in different places.", "data": [{"smiles": "CC(CCC(=O)NC(CCCCNC(=S)Nc1ccc(-c2c3ccc(=O)cc-3oc3cc(O)ccc23)c(C(=O)O)c1)C(=O)O)C1CCC2C3C(O)CC4CC(O)CCC4(C)C3CC(O)C12C", "note": "(stereo not shown) [CLF, cholyl-lysyl-fluorescein]", "values": [{"measurement": "efficiency of hepatic clearance (elimination curves at 25-fold increased dose)", "setting": "[1]; 0.5 mg/kg b.w. i.v. versus 0.02 mg/kg, healthy volunteers", "value": "efficiency of hepatic clearance is unchanged"}, {"measurement": "percentage of fluorescence after 60 min (fluorescence at 60 min compared with 10 min)", "setting": "[1]; 60 min vs 10 min, plasma, healthy volunteers", "value": "13.1±1.6", "unit": "%"}, {"measurement": "Plasma retention at 90 minutes, percentage of the dose administered per liter of plasma", "setting": "[1]; 90 minutes, i.v., healthy volunteers", "value": 2.2, "unit": "%"}, {"measurement": "t1/2 1st phase of elimination", "setting": "[1]; [5]", "value": "1.7 ± 0.9", "unit": "min"}, {"measurement": "t1/2 2nd phase of elimination", "setting": "[1]; [5]", "value": "6.7 ± 1.6", "unit": "min"}, {"measurement": "t1/2 3rd phase of elimination", "setting": "[1]; [5]", "value": "68 ± 17", "unit": "min"}, {"measurement": "CLF plasma elimination compared with natural bile acids", "setting": "[1]; body of data, comparison with natural bile acids", "value": "very similar to the elimination of natural bile acids"}, {"measurement": "volume of distribution", "setting": "[1]; calculated as proposed by Thiordleifsson et al., 0.02 mg/kg", "value": "2214 ± 147", "unit": "mL"}, {"measurement": "CLF elimination curves of FIG. 2", "setting": "[1]; healthy patients versus patients with fatty, cirrhotic and recently transplanted livers (5 days post operation)", "value": "differing rates of CLF elimination"}, {"measurement": "Serum biochemistry including basic liver function tests, electrolytes and kidney function", "setting": "[2]; 0.5 mg/kg b.w. i.v., five healthy volunteers", "value": "did not change significantly"}, {"measurement": "plasma alkaline phosphatase levels post injection", "setting": "[2]; 0.5 mg/kg b.w. i.v., healthy volunteers, not statistically significant", "value": "consistent diminution"}, {"measurement": "bilirubin after CLF injection", "setting": "[2]; after CLF 0.5 mg/kg b.w., before: 10", "value": 11, "unit": "μM/L"}, {"measurement": "AST (aspartate aminotransferase) after CLF injection", "setting": "[2]; after CLF 0.5 mg/kg b.w., before: 17", "value": 16, "unit": "U/L"}, {"measurement": "Creatinine after CLF injection", "setting": "[2]; after CLF 0.5 mg/kg b.w., before: 94", "value": 89, "unit": "μM/L"}, {"measurement": "AlkP (alkaline phosphatase) after CLF injection", "setting": "[2]; after CLF 0.5 mg/kg b.w., before: 148", "value": 134, "unit": "U/L"}, {"measurement": "Albumin after CLF injection", "setting": "[2]; [6]", "value": 42, "unit": "g/L"}, {"measurement": "Urea after CLF injection", "setting": "[2]; [6]", "value": 4.3, "unit": "mM/L"}]}, {"smiles": "C[C@H](CCC(=O)O)[C@H]1CC[C@H]2[C@@H]3[C@H](O)C[C@@H]4C[C@H](O)CC[C@]4(C)[C@H]3C[C@H](O)[C@]12C", "note": "[cholic acid]", "values": [{"measurement": "60 min plasma retention", "setting": "[3]; FHF patients who survived", "value": 60, "unit": "%"}, {"measurement": "60 min plasma retention", "setting": "[3]; healthy volunteers, 60 min compared with 10 min", "value": "8±1", "unit": "%"}, {"measurement": "60 min plasma retention", "setting": "[3]; patients with fulminant hepatic failure (FHF) who subsequently died", "value": 71, "unit": "%"}]}, {"smiles": "C[C@H](CCC(=O)NCC(=O)O)[C@H]1CC[C@H]2[C@@H]3[C@H](O)C[C@@H]4C[C@H](O)CC[C@]4(C)[C@H]3C[C@H](O)[C@]12C", "note": "[cholyl glycine]", "values": [{"measurement": "t1/2 first exponential", "setting": "[4]", "value": "1.7 ± 0.1", "unit": "min"}, {"measurement": "t1/2 second exponential", "setting": "[4]", "value": "7 ± 0.1", "unit": "min"}]}]}
